From patent publication US12503452B2 (Curza Global, LLC, priority 2019, dated 2025)
Read-outs that look alike come from different tables or passages of the source.

Key:
E. coli (Ec) = experiment: Broth microdilution minimum inhibitory concentration (MIC); format: cell-based; conditions: Escherichia coli, E. coli, read-out: E. coli + bicarb MIC
Procedure: A certified BSL-2 laboratory was used for testing. Compounds were evaluated using the broth microdilution minimum inhibitory concentration (MIC) and minimum bactericidal concentration (MBC) assays defined by Clinical and Laboratory Standards Institute (CLSI) in the M26-A guideline against S. aureus (Sa), E. coli (Ec), K. pneumoniae (Kp), A. baumannii (Ab), E. faecalis (Ef) and P. aeruginosa (Pa).
MICs were determined using the Clinical Laboratory and Standards Institute (CLSI) Broth Microdilution Method with slight modification. Clinical and Laboratory Standards Institute (2012). “Methods for dilution antimicrobial susceptibility tests for bacteria that grow aerobically; approved standard, 9th ed. M07-A9. Clinical and Laboratory Standards Institute, Wayne, PA” Serial two-fold dilutions of compounds are prepared in sterile clear round-bottom 96-well plates.
To prepare microdilution trays, two-fold dilutions of antimicrobial agent are prepared in growth medium: Cation-Adjusted Mueller-Hinton Broth (CAMHB), or CAMHB supplemented with sodium bicarbonate (6.25 or 25 mM final concentration prepared from a 1.0M stock solution) or CAMHB supplemented with heat inactivated human serum (Fisher Cat. #BP2657100) 0-50% by adding 200 μL of the highest concentration to be tested (64 μg/mL, for example) in row A, mixing and transferring 100 μL from row A to 100 μL growth medium in row B, then repeating the mixing and transferring through row H of the 96-well plate, discarding the excess 100 μL remaining. This slight modification to the CLSI protocol enables evaluation of MICs for 3 compounds per plate in triplicate, albeit with only 8 compound dilutions (CLSI protocol enables 2 compounds in triplicate with 10 dilutions). Bacterial suspensions are added to a final concentration of 5×10^4 CFU/well by adding 5 μL of a 1:10 dilution of a 0.5 McFarland suspension (1×10^8 CFU/mL) for each bacterium evaluated. Bacterial suspensions were prepared using the growth method described by CLSI. Well-isolated colonies (3-5 from an agar plate) were selected using a sterile loop and used to inoculate a tube containing 4 mL of CAMHB. The cultures are incubated at 35±2° C. until it achieves or exceeds the turbidity of the 0.5 McFarland standard, determined by measuring A600nm (usually two to six hours). When growth exceeds a 0.5 McFarland standard, the turbidity is adjusted with broth to be equivalent to a 0.5 McFarland standard.

[1] = system: E. coli S30 extract (bacterial protein synthesis); experiment: E. coli S30 extract coupled transcription-translation luciferase assay (inhibition of bacterial protein synthesis); format: biochemical; conditions: class by IC50 or % inhibition @ 1 μM, read-out: S30 IC50 (μM/% inhib.)
Procedure: E. coli S30 extract: Inhibition of bacterial protein synthesis was determined using the E. coli S30 Extract System for Circular DNA (Promega catalog #L-2010) and Luciferase Assay Reagent (Promega catalog #E1500) with slight modifications to a published protocol. Fyfe, C., Sutcliffe, J. A. and Grossman, T. H. (2012) “Development and characterization of a Pseudomonas aeruginosa in vitro coupled transcription-translation assay system for evaluation of translation inhibitors” J. Microbiol. Methods 90(3), 256-261.
Compounds were serial diluted in 0.5 mL microcentrifuge tubes by mixing and transferring 50 μL from the highest concentration to 50 μL of water, mixing and transferring 50 μL of this 2-fold dilution to 50 μL of water. This mixing and transferring was repeated so that there are a total of 8 tubes with serial dilutions of compound at 10× the desired screening concentration that are ultimately diluted to 1× by the addition of S30 luciferase synthesis mixture. Serial dilutions of compounds were added (2 μL) to wells in a black round bottom 96-well plate. Water (2 μL) was used as a “no inhibitor” control in 4 wells/plate. No DNA control reaction mixture (20 μL; see below) was used as a control in 4 wells/plate for background luminescence. S30 luciferase synthesis mixture (18 μL; see below) was added to wells with compounds or water mixture and incubated at 37° C. for 1 hour. Reactions were stopped by transferring to 4° C. refrigerator for 5 minutes then 25 μL of luciferase activity mix was added. Luminescence was measured using a BioTek Synergy HTX plate reader. % Inhibition was determined relative to no inhibitor controls.
S30 luciferase synthesis mixture:
• 445 μL S30 extract, circular • 712 μL S30 Premix without amino acids • 4.45 μL pBESTluc™ DNA (1 μg/μL) • 78 μL complete amino acid mixture • 267 μL water No DNA control: • 20 μL S30 extract, circular • 32 μL S30 Premix without amino acids • 7 μL complete amino acid mixture • 21 μL water Rabbit Reticulocyte lysate

[2] = molecular target: Rabbit Reticulocyte Lysate (eukaryotic protein synthesis); experiment: Rabbit reticulocyte lysate luciferase assay (inhibition of eukaryotic protein synthesis); format: biochemical; conditions: class by IC50 or % inhibition @ 1 μM, read-out: Rabbit reticulocyte IC50 (μM/% inhib.)
Procedure: Inhibition of eukaryotic protein synthesis was determined using the Rabbit Reticulocyte Lysate System, Nuclease-Treated from Promega (catalog #L-4960) with slight modifications to the manufacturer's protocol. Compounds were serial diluted in 0.5 mL microcentrifuge tubes by mixing and transferring 50 μL from the highest concentration to 50 μL of water, mixing and transferring 50 μL of this 2-fold dilution to 50 μL of water. This mixing and transferring was repeated so that there are a total of 8 tubes with serial dilutions of compound at 10× the desired screening concentration that are ultimately diluted to 1× by the addition of rabbit reticulocyte luciferase synthesis mixture. Serial dilutions of compounds were added ([…]) to wells in a black round bottom 96-well plate. Water (2.5 μL) was used as a “no inhibitor” control in 4 wells/plate. No RNA control reaction mixture ([…]; see below) was used as a control in 4 wells/plate for background luminescence. Rabbit reticulocyte luciferase synthesis mixture (22.5 μL; see below) was added to wells with compounds or water mixture and incubated at 30° C. for 90 minutes. Luciferase assay reagent (25 μL) was added with luminescence measured using a BioTek Synergy HTX plate reader. % Inhibition was determined relative to no inhibitor controls.
Rabbit reticulocyte luciferase synthesis mixture:
• 1,000 μL rabbit reticulocyte lysate • 5.7 μL Luciferase Control RNA (1 μg/μL) • 26 μL complete amino acid mixture • 395 μL water No RNA Control • 70 μL rabbit reticulocyte lysate • 2 μL complete amino acid mixture • 28 μL water Minimum Inhibitory Concentration (MIC)

[3] = growth medium supplemented with sodium bicarbonate
[4] = growth medium with sodium bicarbonate

SMILES	MIC (E. coli (Ec); [3])	IC50 [1]	IC50 [2]	MIC (E. coli (Ec); [4])
CC(C)(N)C(=O)N1CCN(C(=O)Nc2ccn(-c3ccc(C(C(=O)O)N4CCC(N)CC4)cc3)c(=O)n2)CC1 (stereo not shown) [Compound 93]	> 32 µg/mL	> 1 µM	–	–
C[C@](N)(CO)C(=O)N1CCN(C(=O)Nc2ccn(-c3ccc(CN4CCC(N)CC4)cc3)c(=O)n2)CC1 [Compound 97]	8 to 32 µg/mL	< 0.5 µM	> 1 µM	–
CC(C)(N)C(=O)N1CCN(C(=O)Nc2ccn(-c3ccc(CN4CC[C@@H](N)[C@H](F)C4)cc3)c(=O)n2)CC1 [Compound 208]	–	> 1 µM	–	8 to 32 µg/mL
CN(C)C1CCN(Cc2ccc(-n3ccc(NC(=O)N4CCN(C(=O)C(C)(C)N)CC4)nc3=O)cc2)CC1 [Compound 214]	–	< 0.5 µM	–	< 8 µg/mL
CC(C)(N)C(=O)N1CCN(C(=O)Nc2ccn(-c3ccc(CN4CCC(O)(CN)CC4)cc3)c(=O)n2)CC1 [Compound 215]	–	< 0.5 µM	–	< 8 µg/mL
CO[C@@H]1CN(Cc2ccc(-n3ccc(NC(=O)N4CCN(C(=O)C(C)(C)N)CC4)nc3=O)cc2)CC[C@H]1N [Compound 216]	–	> 1 µM	–	8 to 32 µg/mL
CC(C)(N)C(=O)N1CCN(C(=O)Nc2ccn(-c3ccc(CN4CCC(CCN)CC4)cc3)c(=O)n2)CC1 [Compound 218]	–	< 0.5 µM	> 1 µM	< 8 µg/mL
C[C@H](N)C1CCN(Cc2ccc(-n3ccc(NC(=O)N4CCN(C(=O)[C@@](C)(N)CO)CC4)nc3=O)cc2)CC1 [Compound 221]	–	< 0.5 µM	> 1 µM	< 8 µg/mL
C[C@@H](N)C1CCN(Cc2ccc(-n3ccc(NC(=O)N4CCN(C(=O)[C@@](C)(N)CO)CC4)nc3=O)cc2)CC1 [Compound 222]	–	< 0.5 µM	> 1 µM	< 8 µg/mL
CC(C)(N)CN1CCN(Cc2ccc(-n3ccc(NC(=O)N4CCN(C(=O)C(C)(C)N)CC4)nc3=O)cc2)CC1 [Compound 226]	–	< 0.5 µM	> 1 µM	< 8 µg/mL
CC(C)(N)N1CCN(C(=O)Nc2ccn(-c3ccc(CN4CCC(N)CC4)cc3)c(=O)n2)CC1 [Compound 230]	–	> 1 µM	> 1 µM	8 to 32 µg/mL
Cc1cn(-c2ccc(CN3CCC(N)CC3)cc2)c(=O)nc1NC(=O)N1CCN(C(=O)C(C)(C)N)CC1 [Compound 234]	–	> 1 µM	> 1 µM	> 32 µg/mL
CC(C)(N)C(=O)N1CCN(C(=O)Nc2ccn(-c3ccc(CN4CCC[C@@H](N)C4)cc3)c(=O)n2)CC1 [Compound 236]	–	> 1 µM	> 1 µM	< 8 µg/mL
CC(C)(N)C(=O)N1CCN(C(=O)Nc2ccn(-c3ccc(CN4CCC[C@H](N)C4)cc3)c(=O)n2)CC1 [Compound 237]	–	0.5 to 1 µM	> 1 µM	< 8 µg/mL
CC1(N)CN(Cc2ccc(-n3ccc(NC(=O)N4CCN(C(=O)C(C)(C)N)CC4)nc3=O)cc2)C1 [Compound 238]	–	> 1 µM	> 1 µM	< 8 µg/mL
CC(C)(N)C(=O)N1CCN(C(=O)Nc2ccn(-c3ccc(CN4CC[C@@H](N)C4)cc3)c(=O)n2)CC1 [Compound 239]	–	< 0.5 µM	> 1 µM	< 8 µg/mL
CC(C)(N)C(=O)N1CCN(C(=O)Nc2ccn(-c3ccc(CN4CCCCC(N)C4)cc3)c(=O)n2)CC1 (stereo not shown) [Compound 240]	–	0.5 to 1 µM	> 1 µM	> 32 µg/mL
CC(C)(N)C(=O)N1CCN(C(=O)Nc2ccn(-c3ccc(CN4CC[C@H](N)C4)cc3)c(=O)n2)CC1 [Compound 241]	–	< 0.5 µM	> 1 µM	8 to 32 µg/mL
CC(C)(N)C(=O)N1CCN(C(=O)Nc2ccn(-c3ccc(CN4CC(N)C4)cc3)c(=O)n2)CC1 [Compound 244]	–	> 1 µM	> 1 µM	< 8 µg/mL
CC1(N)CCCN(Cc2ccc(-n3ccc(NC(=O)N4CCN(C(=O)C(C)(C)N)CC4)nc3=O)cc2)C1 (stereo not shown) [Compound 246]	–	> 1 µM	> 1 µM	< 8 µg/mL
CC(C)(N)C(=O)N1CCN(C(=O)Nc2ccn(-c3ccc(CN4CCC(F)(CN)CC4)cc3)c(=O)n2)CC1 [Compound 248]	–	< 0.5 µM	> 1 µM	< 8 µg/mL
CNC1CCN(Cc2ccc(-n3ccc(NC(=O)N4CCN(C(=O)C(C)(C)N)CC4)nc3=O)cc2)CC1 [Compound 250]	–	< 0.5 µM	> 1 µM	< 8 µg/mL
CC1CC(N)CCN1Cc1ccc(-n2ccc(NC(=O)N3CCN(C(=O)C(C)(C)N)CC3)nc2=O)cc1 (stereo not shown) [Compound 252]	–	< 0.5 µM	> 1 µM	< 8 µg/mL
CC(C)(N)C(=O)N1CCN(C(=O)Nc2ccn(-c3ccc(CN4CCC(C(C)(C)N)CC4)cc3)c(=O)n2)CC1 [Compound 253]	–	< 0.5 µM	> 1 µM	< 8 µg/mL
CC1(N)CCCN(Cc2ccc(-n3ccc(NC(=O)N4CCN(C(=O)C(C)(C)N)CC4)nc3=O)cc2)CC1.Cl (stereo not shown) [Compound 255]	–	< 0.5 µM	> 1 µM	< 8 µg/mL
